The values below come from PMC4216168, “Ligand Binding and Activation of PPARγ by Firemaster® 550: Effects on Adipogenesis and Osteogenesis in Vitro” (Environmental Health Perspectives, 2014).

The IC50 is the concentration at which inhibition is half-maximal. As usually defined, the Kd is a measure of binding affinity in units of concentration. What is called EC50 is the concentration at which the effect is half-maximal. Low readings indicate greater potency, high ones weaker potency.

Where two headings read alike, the source gives them in different places.

Series [1] deals with T1, human recombinant PPARγ ligand binding domain (LBD) (Homo sapiens, UniProt P37231).
T1 construct: purchased Invitrogen
T1 sequence (P37231 238-503 limits assumed): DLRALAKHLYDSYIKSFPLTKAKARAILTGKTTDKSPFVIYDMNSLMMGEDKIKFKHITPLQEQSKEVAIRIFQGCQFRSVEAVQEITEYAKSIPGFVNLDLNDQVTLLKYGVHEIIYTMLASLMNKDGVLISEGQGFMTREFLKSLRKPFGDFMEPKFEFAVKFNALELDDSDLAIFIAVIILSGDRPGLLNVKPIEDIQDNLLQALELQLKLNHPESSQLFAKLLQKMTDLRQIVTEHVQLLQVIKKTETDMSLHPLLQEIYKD
The experiment in a line: biochemical. Conditions: for binding to PPARγ LBD: over the concentration range tested (TBB 0.009–90 μM, TBPH 0.12–1,200 μM). The method, then:
PPARγ ligand binding assay. Human PPARγ binding was quantified using the PolarScreen^TM PPARγ-Competitor Assay Kit (Invitrogen, Carlsbad, CA), according to the manufacturer’s instructions. […] Displacement of the fluorescent ligand, which has high polarization when bound to the PPARγ-LBD and low polarization when not bound, was assessed by measuring loss of fluorescence polarization using a SpectraMax M5 plate reader (Molecular Devices, Sunnyvale, CA). We calculated the IC50 (concentration required to reduce effect by 50%) and dissociation constants to compare the potency of the binding. Dissociation constants were calculated according to the following equation:
IC50/[PPARγ green] = Kd,ligand/Kd,probe,
where Kd,probe is the dissociation constant calculated from titration of 1.25 nM Fluormone™ PPARγ green with the PPARγ LBD.

On the set-up of series [2]: method as in Patisaul et al. 2013; Roberts et al. 2012. The conditions noted are these: in vivo and in vitro; ref Patisaul et al. 2013; Roberts et al. 2012; cited from earlier work.
Series [3] has as its system BMS2 cells.
In series [4] the test system is primary mouse bone marrow cultures. In words: Mineralization (Alizarin red) in primary bone marrow cultures. The conditions noted are these: 12 days; FM550 at 5 μg/mL (10 μM).
The subject of series [5] is BMS2 cells. The experiment in a line: Necrosis by dead cell protease release (CytoTox-Glo) in BMS2 cultures. Conditions: 12 days; as high as 10 μg/mL (20 μM) FM550 or 20 μM TPP. The method, then: (§1) Cell viability assays. […] Apoptosis and necrosis were assessed by caspase-3 activity (Caspase-Glo® 3/7 Assay; Promega) and dead cell protease release (CytoTox-Glo™ Cytotoxicity Assay; Promega), respectively, according to the manufacturer’s instructions.

A further series relates to glucocorticoid receptor. Also on record: method as in earlier work. The conditions noted are these: ref Honkakoski et al. 2004; Kojima et al. 2013; Suzuki et al. 2013; cited from earlier work.
Series [6] deals with perilipin expression in BMS2 cells. In words: Perilipin protein expression (immunoblot) in BMS2 cells. The conditions noted are these: BMS2, 7 days. A general note: A western blot detects proteins with antibodies after separation by electrophoresis.
Series [7] deals with primary mouse bone marrow cultures. The experiment in a line: Lipid accumulation (Nile red) in primary bone marrow cultures under osteogenic induction. Conditions: 12 days, molar value of FM550 estimated.
Another series has as its system estrogen receptor. Further details: method as in earlier work. The conditions noted are these: ref Honkakoski et al. 2004; Kojima et al. 2013; Suzuki et al. 2013; cited from earlier work.
In series [8] the test system is BMS2 cells. The conditions noted are these: 12 days; as high as 10 μg/mL (20 μM) FM550 or 20 μM TPP. The procedure: as §1
Series [9] concerns primary mouse bone marrow cultures. The experiment in a line: Alkaline phosphatase activity in primary bone marrow cultures. Conditions: 12 days; FM550 at 5 μg/mL (10 μM).
The subject of series [10] is constitutive androstane receptor. Also on record: method as in earlier work. The conditions noted are these: ref Honkakoski et al. 2004; Kojima et al. 2013; Suzuki et al. 2013; cited from earlier work.
The test system of the next series is pregnane X receptor. Further details: method as in earlier work. Conditions: ref Honkakoski et al. 2004; Kojima et al. 2013; Suzuki et al. 2013; cited from earlier work.
Series [11] has as its system Sp7 mRNA in primary mouse bone marrow cultures. The experiment in a line: Sp7 (Osterix) mRNA expression (qPCR) in primary bone marrow cultures. Conditions: 7 days. It is filed as cell-based. A general note: Real-time PCR tracks product formation cycle by cycle.
Description: (§2) mRNA expression. Total RNA was extracted, and genomic DNA was removed using the RNeasy Plus Mini Kit (QIAGEN, Valencia, CA). cDNA was prepared from total RNA using the GoScript™ Reverse Transcription System (Promega). All quantitative reverse-transcription polymerase chain reaction (qPCR) was performed using the GoTaq® qPCR Master Mix System (Promega). The following validated primers were purchased from Qiagen: 18s ribosomal RNA (Rn18s; QT01036875), fatty acid binding protein 4 (Fabp4; QT00091532), Sp7 transcription factor 7 [Osterix (Sp7; QT00293181)]. qPCR was performed using a 7500 Fast Real-Time PCR System (Applied Biosystems, Carlsbad, CA). Relative gene expression was determined according to the Pfaffl method ([Pfaffl 2001]), with the threshold value for Rn18s used for normalization. […] The quantification cycle value from naive, undifferentiated cultures prepared from 9-week-old male mice was used as the reference point. Data are reported as fold difference from naive.
Series [12] concerns Fabp4 mRNA in primary mouse bone marrow cultures. The experiment in a line: Fabp4 mRNA expression (qPCR) in primary bone marrow cultures. It is filed as cell-based. Conditions: 7 days.
Description: as §2
A further series has as its target human PPARγ1 (Homo sapiens, UniProt P37231). The experiment in a line: PPRE-luciferase reporter assay in Cos-7 cells transfected with human PPARG1 and RXRA. It counts as cell-based. The text has this: Reporter assays. Cos-7 cells were transiently transfected with vectors containing human PPARG1 (provided by V.K. Chatterjee, University of Cambridge, Cambridge, UK) ([Gurnell et al. 2000]) and human RXRA (plasmid 8882; Addgene, Cambridge, MA) ([Tontonoz et al. 1994]), with PPRE x3-TK-luc (plasmid 1015; Addgene) ([Kim et al. 1998]) and CMV-eGFP reporter constructs using Lipofectamine2000 (Invitrogen). Cultures were cotransfected with either pcDNA3 (Invitrogen) or dominant negative human PPARG (PPARγ-DN; provided by V.K. Chatterjee). […] After 24 hr incubation, cells were lysed in Glo Lysis Buffer and mixed with Bright Glo reagent (both from Promega, Madison, WI). […] Luminescence was normalized by GFP (green fluorescent protein) fluorescence in the same well. The normalized luminescence for each well was then divided by the normalized luminescence measured in control DN-PPARγ–transfected wells to determine the fold-change from DN-control.
In general terms: Reporter assays use an easily measured gene product as a stand-in for the process of interest.

Series [13] deals with BMS2 cells. In words: Lipid accumulation (Nile red) in BMS2 cells.
A further series concerns progesterone receptor. Also on record: method as in earlier work. Conditions: ref Honkakoski et al. 2004; Kojima et al. 2013; Suzuki et al. 2013; cited from earlier work.
For a further series, the system named is NIH 3T3L1 cells. Further details: method as in Springer et al. 2012. The conditions noted are these: ref Springer et al. 2012; cited from earlier work.
In another series the test system is PPARγ. Also on record: method as in Springer et al. 2012. Conditions: in vitro; ref Springer et al. 2012; cited from earlier work.
Another series concerns PPARα. Further details: method as in Springer et al. 2012. The conditions noted are these: in vitro; ref Springer et al. 2012; cited from earlier work.

Chain of human PPARγ1 (P19793 whole entry): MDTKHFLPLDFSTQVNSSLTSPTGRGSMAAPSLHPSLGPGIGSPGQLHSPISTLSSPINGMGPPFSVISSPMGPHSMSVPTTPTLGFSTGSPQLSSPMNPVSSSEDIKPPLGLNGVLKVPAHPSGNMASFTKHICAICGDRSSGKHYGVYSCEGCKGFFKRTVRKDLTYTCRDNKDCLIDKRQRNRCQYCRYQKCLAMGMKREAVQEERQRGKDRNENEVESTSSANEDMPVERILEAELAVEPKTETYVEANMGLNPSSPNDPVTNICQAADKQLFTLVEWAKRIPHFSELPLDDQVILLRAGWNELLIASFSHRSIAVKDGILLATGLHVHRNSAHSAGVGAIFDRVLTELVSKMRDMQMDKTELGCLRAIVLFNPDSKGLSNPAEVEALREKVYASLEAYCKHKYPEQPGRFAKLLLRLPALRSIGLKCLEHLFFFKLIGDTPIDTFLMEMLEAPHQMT
Chain of human PPARγ1 (P37231 29-505): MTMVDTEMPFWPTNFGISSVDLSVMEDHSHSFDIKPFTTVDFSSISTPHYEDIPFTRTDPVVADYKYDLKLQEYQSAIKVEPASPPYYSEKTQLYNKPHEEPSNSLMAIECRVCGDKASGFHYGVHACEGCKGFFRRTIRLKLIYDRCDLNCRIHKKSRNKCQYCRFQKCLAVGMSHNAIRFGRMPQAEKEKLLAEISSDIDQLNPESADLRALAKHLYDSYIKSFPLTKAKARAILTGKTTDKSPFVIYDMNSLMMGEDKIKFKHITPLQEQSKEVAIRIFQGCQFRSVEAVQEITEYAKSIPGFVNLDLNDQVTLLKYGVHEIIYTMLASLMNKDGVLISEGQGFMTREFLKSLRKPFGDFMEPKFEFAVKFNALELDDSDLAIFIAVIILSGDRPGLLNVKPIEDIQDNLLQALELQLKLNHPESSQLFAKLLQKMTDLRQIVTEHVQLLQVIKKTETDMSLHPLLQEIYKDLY

In the case of `CCCCC(CC)COC(=O)c1cc(Br)c(Br)c(Br)c1Br` (centres unmarked) [TBB, tetrabromobenzoate], the “binding to PPARγ LBD” value in series [1] was “did not demonstrate any binding”.
With `CCCCC(CC)COC(=O)c1c(Br)c(Br)c(Br)c(Br)c1C(=O)OCC(CC)CCCC` (centres unmarked) [TBPH, bis-(2-ethylhexyl) tetrabromophthalate], the “binding to PPARγ LBD” value in series [1] is recorded as “did not demonstrate any binding”. Besides, the “metabolism into the monoester” value in series [2] is “minimally metabolized into the monoester”.
As for `O=P(Oc1ccccc1)(Oc1ccccc1)Oc1ccccc1` [TPP, triphenyl phosphate], the “cellularity (MTT)” value in the series with BMS2 cells [3] (24 hr, as high as 40 μg/mL (90 μM) FM550, 40 μM TPP, 40 μg/mL (100 μM) ITP) is reported as “no loss of cellularity”; in the series on BMS2 cells [3] (7 days, as high as 20 μg/mL (50 μM) FM550, 20 μM TPP, 10 μg/mL (30 μM) ITP), “no loss of cellularity”; in the series with BMS2 cells [3] (12 days, as high as 10 μg/mL (20 μM) FM550 or 20 μM TPP) it was “no loss of cellularity”. Moreover, the mineralization result in series [4] is “significantly suppressed only alkaline phosphatase activity”. The necrotic protein release result in the series with BMS2 cells [5] was “no increase in necrotic protein release”. In addition, in the series with glucocorticoid receptor, the “glucocorticoid receptor–mediated reporter activity” value was “antagonizing”. In series [1], the IC50 was found to be 38 µM. Also, the Kd in series [1] was 20 µM. In addition, in series [6], the perilipin expression entry is “induced the expression of perilipin”. For the same compound, the “concentration inducing lipid accumulation” value in [7] was 10 µM. For the same compound, in the series on estrogen receptor, the “estrogen receptor–mediated reporter activity” value is recorded as “activating”. Further, the caspase-3 activity result with BMS2 cells [8] is listed as “no increase in caspase-3 activity”. Also, the alkaline phosphatase activity result in series [9] is “significantly suppressed”. In addition, the “constitutive androstane receptor–mediated reporter activity” value in series [10] is given as “activating”. Further, in the series with pregnane X receptor, the “pregnane X receptor–mediated reporter activity” value is “activating”. Also, in series [11], the “Sp7 mRNA expression” value is given as “significant decrease in mRNA expression of Sp7”. Further, the “Fabp4 mRNA expression” value in [12] was “significantly increased mRNA expression of Fabp4”. This compound showed an EC50 at human PPARγ1 of 8 µM. The “concentrations significantly inducing PPARγ-driven reporter activity” value on human PPARγ1 (Cos7, 24 hr, molar values of FM550 and ITP estimated) was at least 10 µM. In addition, the “maximal PPARγ-driven reporter activity” value at human PPARγ1 (fold-change from DN-control, 24 hr, rosiglitazone at 1 μM) is recorded as 7.5 ± 0.7 fold. In the series with BMS2 cells [13] (7 days, naive-corrected, rosiglitazone at 1 μM), this compound yielded a maximal lipid accumulation of 614 ± 60 RFUs. For the same compound, the “concentrations significantly inducing lipid accumulation” value in the series on BMS2 cells [13] (BMS2, 7 days, molar values of FM550 and ITP estimated) is at least 5 µM. The “progesterone receptor–mediated reporter activity” value with progesterone receptor is reported as “antagonizing”.
For the compound `CCCCC(CC)COC(=O)c1c(Br)c(Br)c(Br)c(Br)c1C(=O)O` (centres unmarked) [mono-(2-ethylhexyl) tetrabromophthalate], in the series with NIH 3T3L1 cells, the adipocyte differentiation result is reported as “induced adipocyte differentiation”. The PPARγ-mediated gene transcription result in the series on PPARγ is “activated”. For the same compound, the PPARα-mediated gene transcription entry in the series on PPARα is “activated”.
